Source: patent US20260232767A1, “INTERLEUKIN-23 RECEPTOR ANTAGONIST PEPTIDES FOR USE IN THE TREATMENT OF PSORIASIS” (Janssen Pharmaceutica NV, priority 2023, published 2026)

Tested on: subjects with moderate-to-severe plaque psoriasis
Assay: PSSD symptom and sign scores, Example 2
Type: in vivo, human
Settings: for Change from Baseline in PSSD Sign Score, LSMean / Change from Baseline in PSSD Symptom Score, LSMean: MMRM

For `CC(=O)NCCCC[C@@H]1NC(=O)[C@H](Cc2c[nH]c3c(C)cccc23)NC(=O)[C@H]([C@@H](C)O)NC(=O)[C@H](CC(N)=O)NC(=O)[C@@H](NC(C)=O)C(C)(C)SSC(C)(C)[C@@H](C(=O)N[C@@H](Cc2ccc(OCCN)cc2)C(=O)N[C@@H](Cc2ccc3ccccc3c2)C(=O)NC2(C(=O)N[C@@H](CCC(=O)O)C(=O)N[C@@H](CC(N)=O)C(=O)N[C@@H](Cc3cccnc3)C(=O)N(C)CC(N)=O)CCOCC2)NC1=O` [IL-23 receptor antagonist peptide, Ac-[Pen]*-N-T-[W(7-Me)]-[Lys(Ac)]-[Pen]*-Phe[4-(2-aminoethoxy)]-[2-Nal]-[THP]-E-N-[3-Pal]-Sarc-NH2 (*[Pen]-[Pen]* formdisulfidebond)], the “Change from Baseline in PSSD Symptom Score, Mean” value (Week 4, 50 mg QD) was −23.6, the “Change from Baseline in PSSD Symptom Score, Median” value (Week 4, 50 mg QD) was −23.0 and the “Change from Baseline in PSSD Sign Score, LSMean” value (Week 4, 50 mg QD) was −28.0. The “Change from Baseline in PSSD Symptom Score, LSMean” value (Week 4, 50 mg QD) was −23.4, the “Change from Baseline in PSSD Sign Score, Mean” value (Week 4, 100 mg BID) was −33.3 and the “Change from Baseline in PSSD Sign Score, Median” value (Week 4, 100 mg BID) was −32.0. The “Change from Baseline in PSSD Symptom Score, Mean” value (Week 4, 100 mg BID) was −26.1, the “Change from Baseline in PSSD Symptom Score, Median” value (Week 4, 100 mg BID) was −22.0 and the “Subjects Achieving PSSD Symptom Score 0 (%)” value (Week 4, 100 mg BID, Baseline Symptom Score ≥1, N=42) was “(4.8%)”. For the same molecule, the “Change from Baseline in PSSD Sign Score, LSMean” value (Week 4, 100 mg BID) was −32.9, the “Change from Baseline in PSSD Symptom Score, LSMean” value (Week 4, 100 mg BID) was −24.4 and the “Change from Baseline in PSSD Sign Score, Mean” value (Week 4, 100 mg QD) was −31.1. For the same molecule, the “Change from Baseline in PSSD Sign Score, Median” value (Week 4, 100 mg QD) was −32.5, the “Change from Baseline in PSSD Symptom Score, Mean” value (Week 4, 100 mg QD) was −19.4 and the “Change from Baseline in PSSD Symptom Score, Median” value (Week 4, 100 mg QD) was −17.0. For the same molecule, the “Subjects Achieving PSSD Sign Score 0 (%)” value (Week 4, 100 mg QD, Baseline Sign Score ≥1, N=43) was “(2.3%)”, the “Subjects Achieving PSSD Symptom Score 0 (%)” value (Week 4, 100 mg QD, Baseline Symptom Score ≥1, N=43) was “(2.3%)” and the “Change from Baseline in PSSD Sign Score, LSMean” value (Week 4, 100 mg QD) was −33.8. The “Change from Baseline in PSSD Symptom Score, LSMean” value (Week 4, 100 mg QD) was −24.5, the “Change from Baseline in PSSD Sign Score, Mean” value (Week 8, 25 mg BID) was −33.8 and the “Change from Baseline in PSSD Sign Score, Median” value (Week 8, 25 mg BID) was −38.0. For the same molecule, the “Change from Baseline in PSSD Symptom Score, Mean” value (Week 8, 25 mg BID) was −27.5, the “Change from Baseline in PSSD Symptom Score, Median” value (Week 8, 25 mg BID) was −22.0 and the “Subjects Achieving PSSD Sign Score 0 (%)” value (Week 8, 25 mg BID, Baseline Sign Score ≥1, N=41) was “(2.4%)”. For the same molecule, the “Subjects Achieving PSSD Symptom Score 0 (%)” value (Week 8, 25 mg BID, Baseline Symptom Score ≥1, N=41) was “(7.3%)”, the “Change from Baseline in PSSD Sign Score, LSMean” value (Week 8, 25 mg BID) was −34.1 and the “Change from Baseline in PSSD Symptom Score, LSMean” value (Week 8, 25 mg BID) was −27.5. For the same molecule, the “Change from Baseline in PSSD Sign Score, Mean” value (Week 8, 25 mg QD) was −33.0, the “Change from Baseline in PSSD Sign Score, Median” value (Week 8, 25 mg QD) was −40.0 and the “Change from Baseline in PSSD Symptom Score, Mean” value (Week 8, 25 mg QD) was −32.3. The “Change from Baseline in PSSD Symptom Score, Median” value (Week 8, 25 mg QD) was −32.0, the “Subjects Achieving PSSD Sign Score 0 (%)” value (Week 8, 25 mg QD, Baseline Sign Score ≥1, N=43) was “(4.7%)” and the “Subjects Achieving PSSD Symptom Score 0 (%)” value (Week 8, 25 mg QD, Baseline Symptom Score ≥1, N=43) was “(9.3%)”. The “Change from Baseline in PSSD Sign Score, LSMean” value (Week 8, 25 mg QD) was −29.0, the “Change from Baseline in PSSD Symptom Score, LSMean” value (Week 8, 25 mg QD) was −27.1 and the “Change from Baseline in PSSD Sign Score, Mean” value (Week 8, 50 mg QD) was −39.7. For the same molecule, the “Change from Baseline in PSSD Sign Score, Median” value (Week 8, 50 mg QD) was −40.5, the “Change from Baseline in PSSD Symptom Score, Mean” value (Week 8, 50 mg QD) was −35.0 and the “Change from Baseline in PSSD Symptom Score, Median” value (Week 8, 50 mg QD) was −36.0. The “Subjects Achieving PSSD Sign Score 0 (%)” value (Week 8, 50 mg QD, Baseline Sign Score ≥1, N=43) was “(7.0%)”, the “Subjects Achieving PSSD Symptom Score 0 (%)” value (Week 8, 50 mg QD, Baseline Symptom Score ≥1, N=42) was “(9.5%)” and the “Change from Baseline in PSSD Sign Score, LSMean” value (Week 8, 50 mg QD) was −40.1. The “Change from Baseline in PSSD Symptom Score, LSMean” value (Week 8, 50 mg QD) was −34.3, the “Change from Baseline in PSSD Sign Score, Mean” value (Week 8, 100 mg BID) was −48.3 and the “Change from Baseline in PSSD Sign Score, Median” value (Week 8, 100 mg BID) was −52.0. The “Change from Baseline in PSSD Symptom Score, Mean” value (Week 8, 100 mg BID) was −41.7, the “Change from Baseline in PSSD Symptom Score, Median” value (Week 8, 100 mg BID) was −42.0 and the “Subjects Achieving PSSD Sign Score 0 (%)” value (Week 8, 100 mg BID, Baseline Sign Score ≥1, N=42) was “(9.5%)”. The “Subjects Achieving PSSD Symptom Score 0 (%)” value (Week 8, 100 mg BID, Baseline Symptom Score ≥1, N=42) was “(16.7%)”, the “Change from Baseline in PSSD Sign Score, LSMean” value (Week 8, 100 mg BID) was −47.5 and the “Change from Baseline in PSSD Symptom Score, LSMean” value (Week 8, 100 mg BID) was −39.2. For the same molecule, the “Change from Baseline in PSSD Sign Score, Mean” value (Week 8, 100 mg QD) was −40.2, the “Change from Baseline in PSSD Sign Score, Median” value (Week 8, 100 mg QD) was −43.0 and the “Change from Baseline in PSSD Symptom Score, Mean” value (Week 8, 100 mg QD) was −27.8. The “Change from Baseline in PSSD Symptom Score, Median” value (Week 8, 100 mg QD) was −26.0, the “Subjects Achieving PSSD Sign Score 0 (%)” value (Week 8, 100 mg QD, Baseline Sign Score ≥1, N=43) was “(7.0%)” and the “Subjects Achieving PSSD Symptom Score 0 (%)” value (Week 8, 100 mg QD, Baseline Symptom Score ≥1, N=43) was “(14.0%)”. The “Change from Baseline in PSSD Sign Score, LSMean” value (Week 8, 100 mg QD) was −43.2, the “Change from Baseline in PSSD Symptom Score, LSMean” value (Week 8, 100 mg QD) was −33.3 and the “Change from Baseline in PSSD Sign Score, Mean” value (Week 12, 25 mg BID) was −38.5. For the same molecule, the “Change from Baseline in PSSD Sign Score, Median” value (Week 12, 25 mg BID) was −40.0, the “Change from Baseline in PSSD Symptom Score, Mean” value (Week 12, 25 mg BID) was −32.0 and the “Change from Baseline in PSSD Symptom Score, Median” value (Week 12, 25 mg BID) was −28.0. The “Subjects Achieving PSSD Sign Score 0 (%)” value (Week 12, 25 mg BID, Baseline Sign Score ≥1, N=41) was “(7.3%)”, the “Subjects Achieving PSSD Symptom Score 0 (%)” value (Week 12, 25 mg BID, Baseline Symptom Score ≥1, N=41) was “(7.3%)” and the “Change from Baseline in PSSD Sign Score, LSMean” value (Week 12, 25 mg BID) was −39.0. The “Change from Baseline in PSSD Symptom Score, LSMean” value (Week 12, 25 mg BID) was −32.3, the “Change from Baseline in PSSD Sign Score, Mean” value (Week 12, 25 mg QD) was −34.8 and the “Change from Baseline in PSSD Sign Score, Median” value (Week 12, 25 mg QD) was −40.0. The “Change from Baseline in PSSD Symptom Score, Mean” value (Week 12, 25 mg QD) was −31.5, the “Change from Baseline in PSSD Symptom Score, Median” value (Week 12, 25 mg QD) was −34.0 and the “Subjects Achieving PSSD Symptom Score 0 (%)” value (Week 12, 25 mg QD, Baseline Symptom Score ≥1, N=43) was “(14.0%)”. The “Change from Baseline in PSSD Sign Score, LSMean” value (Week 12, 25 mg QD) was −30.7, the “Change from Baseline in PSSD Symptom Score, LSMean” value (Week 12, 25 mg QD) was −25.8 and the “Change from Baseline in PSSD Sign Score, Mean” value (Week 12, 50 mg QD) was −42.5. The “Change from Baseline in PSSD Sign Score, Median” value (Week 12, 50 mg QD) was −46.0, the “Change from Baseline in PSSD Symptom Score, Mean” value (Week 12, 50 mg QD) was −36.3 and the “Change from Baseline in PSSD Symptom Score, Median” value (Week 12, 50 mg QD) was −37.0. The “Subjects Achieving PSSD Sign Score 0 (%)” value (Week 12, 50 mg QD, Baseline Sign Score ≥1, N=43) was “(4.7%)”, the “Subjects Achieving PSSD Symptom Score 0 (%)” value (Week 12, 50 mg QD, Baseline Symptom Score ≥1, N=42) was “(19.0%)” and the “Change from Baseline in PSSD Sign Score, LSMean” value (Week 12, 50 mg QD) was −43.0. For the same molecule, the “Change from Baseline in PSSD Symptom Score, LSMean” value (Week 12, 50 mg QD) was −35.7, the “Change from Baseline in PSSD Sign Score, Mean” value (Week 12, 100 mg BID) was −49.9 and the “Change from Baseline in PSSD Sign Score, Median” value (Week 12, 100 mg BID) was −53.0. The “Change from Baseline in PSSD Symptom Score, Mean” value (Week 12, 100 mg BID) was −42.3, the “Change from Baseline in PSSD Symptom Score, Median” value (Week 12, 100 mg BID) was −41.0 and the “Subjects Achieving PSSD Sign Score 0 (%)” value (Week 12, 100 mg BID, Baseline Sign Score ≥1, N=42) was “(11.9%)”. The “Subjects Achieving PSSD Symptom Score 0 (%)” value (Week 12, 100 mg BID, Baseline Symptom Score ≥1, N=42) was “(26.2%)”, the “Change from Baseline in PSSD Sign Score, LSMean” value (Week 12, 100 mg BID) was −48.8 and the “Change from Baseline in PSSD Symptom Score, LSMean” value (Week 12, 100 mg BID) was −39.5. For the same molecule, the “Change from Baseline in PSSD Sign Score, Mean” value (Week 12, 100 mg QD) was −39.1, the “Change from Baseline in PSSD Sign Score, Median” value (Week 12, 100 mg QD) was −45.0 and the “Change from Baseline in PSSD Symptom Score, Mean” value (Week 12, 100 mg QD) was −27.9. The “Change from Baseline in PSSD Symptom Score, Median” value (Week 12, 100 mg QD) was −27.0, the “Subjects Achieving PSSD Sign Score 0 (%)” value (Week 12, 100 mg QD, Baseline Sign Score ≥1, N=43) was “(7.0%)” and the “Subjects Achieving PSSD Symptom Score 0 (%)” value (Week 12, 100 mg QD, Baseline Symptom Score ≥1, N=43) was “(20.9%)”. The “Change from Baseline in PSSD Sign Score, LSMean” value (Week 12, 100 mg QD) was −42.2, the “Change from Baseline in PSSD Symptom Score, LSMean” value (Week 12, 100 mg QD) was −34.7 and the “Change from Baseline in PSSD Sign Score, Mean” value (Week 16, 25 mg BID) was −41.8. The “Change from Baseline in PSSD Sign Score, Median” value (Week 16, 25 mg BID) was −36.5, the “Change from Baseline in PSSD Symptom Score, Mean” value (Week 16, 25 mg BID) was −34.0 and the “Change from Baseline in PSSD Symptom Score, Median” value (Week 16, 25 mg BID) was −28.0. For the same molecule, the “Subjects Achieving PSSD Sign Score 0 (%)” value (Week 16, 25 mg BID, Baseline Sign Score ≥1, N=41) was “(9.8%)”, the “Subjects Achieving PSSD Symptom Score 0 (%)” value (Week 16, 25 mg BID, Baseline Symptom Score ≥1, N=41) was “(17.1%)” and the “Change from Baseline in PSSD Sign Score, LSMean” value (Week 16, 25 mg BID) was −40.9. The “Change from Baseline in PSSD Symptom Score, LSMean” value (Week 16, 25 mg BID) was −32.7, the “Change from Baseline in PSSD Sign Score, Mean” value (Week 16, 25 mg QD) was −38.6 and the “Change from Baseline in PSSD Sign Score, Median” value (Week 16, 25 mg QD) was −43.0. For the same molecule, the “Change from Baseline in PSSD Symptom Score, Mean” value (Week 16, 25 mg QD) was −35.8 and the “Change from Baseline in PSSD Symptom Score, Median” value (Week 16, 25 mg QD) was −34.0.
